Reference: the NIST ThermoML archive (doi:10.1021/acs.jced.6b00750)

Settings: Liquid; for mass density: Vibrating wire densiometer; for viscosity: Vibrating wire viscometry

CCCCCCCCCCCCCCCC [hexadecane]
Settings	mass density [kg/m3]	viscosity [mPa·s]
298.36 K, 1060 kPa	769.2	3.107
298.36 K, 1080 kPa	769.2	3.109
298.36 K, 10010 kPa	775	3.497
298.36 K, 21090 kPa	781.2	4.032
298.36 K, 30500 kPa	786.4	4.534
298.61 K, 970 kPa	768.9	3.143
298.61 K, 10340 kPa	774.7	3.562
298.61 K, 20570 kPa	780.8	4.041
298.61 K, 30370 kPa	785.9	4.588
323.21 K, 1090 kPa	751.5	1.874
323.21 K, 1250 kPa	751.7	1.872
323.21 K, 21100 kPa	765.2	2.387
323.21 K, 40990 kPa	776.9	2.957
323.21 K, 60490 kPa	787.1	3.598
323.21 K, 80320 kPa	796	4.381
323.21 K, 102810 kPa	803.3	5.08
323.22 K, 990 kPa	752.4	1.878
323.22 K, 20960 kPa	764.8	2.429
323.22 K, 42100 kPa	777.2	3.007
323.22 K, 61170 kPa	787.4	3.666
323.22 K, 81170 kPa	796	4.471
348.2 K, 610 kPa	734.8	1.275
348.2 K, 1010 kPa	734.4	1.255
348.2 K, 1070 kPa	734.5	1.251
348.2 K, 20050 kPa	749.2	1.57
348.2 K, 20370 kPa	749.8	1.595
348.2 K, 40520 kPa	762.5	1.939
348.2 K, 40780 kPa	762.9	1.97
348.2 K, 60680 kPa	773.7	2.356
348.2 K, 62000 kPa	773.9	2.398
348.2 K, 80380 kPa	783.3	2.813
348.2 K, 80450 kPa	783.5	2.806
348.2 K, 100940 kPa	791.9	3.278
373.12 K, 1210 kPa	717.2	0.911
373.12 K, 1240 kPa	717.3	0.91
373.12 K, 20080 kPa	733.9	1.136
373.12 K, 40700 kPa	748.6	1.397
373.12 K, 60760 kPa	760.8	1.678
373.12 K, 80760 kPa	771.3	1.988
373.12 K, 100220 kPa	780.9	2.303
373.25 K, 1370 kPa	717.7	0.926
373.25 K, 19850 kPa	733.7	1.148
373.25 K, 40190 kPa	748.6	1.399
373.25 K, 59970 kPa	760.4	1.692
373.25 K, 81310 kPa	771.4	1.995
398.21 K, 1230 kPa	700.1	0.693
398.21 K, 1670 kPa	700.4	0.694
398.21 K, 20450 kPa	719.1	0.872
398.21 K, 40750 kPa	735.1	1.066
398.21 K, 60560 kPa	748.2	1.265
398.21 K, 80390 kPa	759.4	1.488
398.21 K, 100460 kPa	769.4	1.71
398.28 K, 1050 kPa	700.3	0.697
398.28 K, 21190 kPa	719.6	0.879
398.28 K, 41290 kPa	735.3	1.082
398.28 K, 59990 kPa	747.8	1.267
398.28 K, 80670 kPa	759.3	1.498
423.26 K, 1360 kPa	682.2	0.542
423.26 K, 1420 kPa	682.4	0.544
423.26 K, 20790 kPa	704.2	0.691
423.26 K, 40900 kPa	721.5	0.845
423.26 K, 60040 kPa	735.2	0.998
423.26 K, 80490 kPa	747.7	1.171
423.26 K, 100020 kPa	758.2	1.348
423.31 K, 1460 kPa	682.9	0.554
423.31 K, 20610 kPa	704.4	0.699
423.31 K, 40760 kPa	721.8	0.853
423.31 K, 60120 kPa	735.2	1.012
423.31 K, 80990 kPa	748.2	1.189
448.23 K, 1100 kPa	664	0.437
448.23 K, 1170 kPa	664.1	0.438
448.23 K, 20220 kPa	688.7	0.559
448.23 K, 40500 kPa	708.1	0.689
448.23 K, 60460 kPa	723.5	0.82
448.23 K, 80430 kPa	736.5	0.958
448.23 K, 100270 kPa	748	1.098
448.48 K, 1230 kPa	663.8	0.445
448.48 K, 20750 kPa	688.9	0.571
448.48 K, 40680 kPa	707.8	0.702
448.48 K, 60650 kPa	723.1	0.831
448.48 K, 80720 kPa	736.2	0.97
473.54 K, 1250 kPa	645.4	0.359
473.54 K, 1270 kPa	645.8	0.36
473.54 K, 20770 kPa	674.2	0.469
473.54 K, 40980 kPa	695.3	0.579
473.54 K, 60770 kPa	711.8	0.688
473.54 K, 80500 kPa	725.5	0.803
473.54 K, 101080 kPa	738.1	0.924
473.85 K, 1400 kPa	645.2	0.367
473.85 K, 21260 kPa	674.3	0.478
473.85 K, 41040 kPa	694.7	0.59
473.85 K, 61190 kPa	711.3	0.706
473.85 K, 81710 kPa	725.7	0.815
